# Measurements reported in patent US20190021321A1, “BROAD SPECTRUM ANTIMICROBIAL & ANTICOAGULANT COMPOSITION” (priority 2016, published 2019).
# Read-outs that look alike come from different tables or passages of the source.
# Columns and labels:
# [1] = tested on: C. albicans; test: Rate kill assay, plate count (Part A synergy; Part B pH and D-Mannitol effect); format: cell-based; details: D-Mannitol 0.73 wt % alone, both at pH 7.5 & 11
# Experimental: The second set of experiments conducted, were “Rate Kill” assay. A rate kill assay can confirm whether combinations are synergistic or not. In these assays the formulations are first exposed to organisms for a desired time (for the current formulations readings were taken at 1, 3 and 24 hours). Then a sample of the organisms and formulation mixture is serially diluted and plated to assess the log reduction. The organisms are allowed to grow and are checked for growth/log reduction after 24 hrs. The log reduction values obtained for individual components are compared with the combinations.
# The following solutions were prepared:
# Each solution was then combined with C. albicans and the log reduction of the C. albicans was measured at 1, 3 and 24 hours.
# [2] = tested on: S. aureus; test: as above; format: cell-based; details: D-Mannitol 0.73 wt % alone, both at pH 7.5 & 11
# Experimental: The second set of experiments conducted, were “Rate Kill” assay. […] In these assays the formulations are first exposed to organisms for a desired time (for the current formulations readings were taken at 1, 3 and 24 hours). Then a sample of the organisms and formulation mixture is serially diluted and plated to assess the log reduction. The organisms are allowed to grow and are checked for growth/log reduction after 24 hrs. The log reduction values obtained for individual components are compared with the combinations.
# Each solution was then combined with S. aureus and the log reduction of the S. aureus was measured at 1, 3 and 24 hours.
# [3] = tested on: P. aeruginosa; test: as above; format: cell-based
# Experimental: In these assays the formulations are first exposed to organisms for a desired time (for the current formulations readings were taken at 1, 3 and 24 hours). Then a sample of the organisms and formulation mixture is serially diluted and plated to assess the log reduction. The organisms are allowed to grow and are checked for growth/log reduction after 24 hrs. The log reduction values obtained for individual components are compared with the combinations.
# Each solution was then combined with P. aeruginosa and the log reduction of the P. aeruginosa was measured at 1, 3 and 24 hours.
# [4] = up to 3000 mg infused over 3 hours, daily, treatment of hyper-calcemia in humans; cited from earlier work
# [5] = tested on: C. albicans; test: Synergy evaluation, checkerboard titration, macro-dilution; format: cell-based
# Experimental: (§1) The first set of experiments conducted, were screening experiments using checkerboard titration strategy to assess if the combinations fall within a range having an Fractional Inhibitory Concentration (FIC) index value of ≤1. The method used was a NCCLS macro-dilution procedure.
# (§2) The Checkerboard Titration method was used to assess the interactions between TEDTA and Ethanol. […] During this experiment, TEDTA and Ethanol were tested in the combinations to assess if the combinations have a Fractional Inhibitory Concentration (FIC) index of ≤1. The following concentrations were tested:
# (§3) Fractional Inhibitory Concentration (FIC) is defined as the MIC of the compound in combination divided by the MIC of the compound alone. If the FIC index is ≤0.5, the combination is interpreted to be synergistic; <1 but >0.5—as partially synergistic; =1 as additive; >1 but <4 as indifferent; and ≥4 as antagonistic. In order to calculate the FIC index the following calculations are performed for compounds A and B:
# (§4) FIC-A=(MIC of A in combination)/(MIC of A alone)
# (§5) FIC-B=(MIC of B in combination)/(MIC of B alone)
# (§6) FIC-combination=FIC-A+FIC-B
# (§7) The following concentrations were tested:
# (§8) The MIC-TEDTA (MIC of TEDTA in combination with Ethanol), a minimum concentration of TEDTA, while in combination with Ethanol, that inhibited the growth of C. albicans in MHB was found. In order to determine the MIC-Ethanol (MIC of Ethanol in combination with TEDTA), a minimum concentration of Ethanol, while in combination with TEDTA, that inhibited the growth of C. albicans in MHB was found.
# [6] = tested on: P. aeruginosa; test: as above; format: cell-based
# Experimental: as §1, §2, §3, §4, §5, §6, §7
# as §8, with “P. aeruginosa” for “C. albicans”
# [7] = tested on: S. aureus; test: as above; format: cell-based
# Experimental: as §1, §2, §3, §4, §5, §6
# In order to determine the MIC-Ethanol (MIC of Ethanol in combination with TEDTA), a minimum concentration of Ethanol, while in combination with TEDTA, which inhibited the growth of S. aureus in MHB was found.
# [8] = tested on: C. albicans; details: for MIC: C. albicans; for GROWTH: 24 hours, replicate columns
# Experimental: (§9) Experiments were conducted to assess the minimum inhibitory concentration (MIC) both for sodium salt of EDTA that comprises tetra-sodium EDTA and Ethanol. […] Clear solution indicates no growth.
# (§10) The following solutions were prepared to evaluate the MIC values of sodium salt of EDTA that comprises tetra-sodium EDTA (TEDTA) and Ethanol.
# [9] = tested on: P. aeruginosa; details: for GROWTH: 24 hours, replicate columns; for MIC: P. aeruginosa
# Experimental: as §9, §10
# [10] = tested on: S. aureus; test: Minimum inhibitory concentration (MIC) via macro-dilution method; details: for GROWTH: 24 hours, replicate columns; for MIC: S. aureus
# [11] = S. aureus in Mueller Hinton Broth
# [12] = TEDTA 0.06 WT % individual (0.25 MIC)
# [13] = TEDTA 0.12 WT % individual (0.50 MIC)
# [14] = TEDTA 0.24 WT % individual (1.00 MIC)
# [15] = TEDTA alone, listed as Sodium Salt(s) of EDTA
smiles,measurement,setting,value
OC[C@@H](O)[C@@H](O)[C@H](O)[C@H](O)CO [D-Mannitol],log reduction,[1],> 5 log
same,log reduction,[2],> 4 log
same,log reduction,"[3]; P. aeruginosa, D-Mannitol 0.73 wt % alone, both at pH 7.5 & 11",> 5 log
same,LOG REDUCTION AGAINST P. aeruginosa,"[3]; footnote summary, D-mannitol alone, 0.73 wt %",D-MANNITOL EXHIBITS > 5 LOG REDUCTION AGAINST P. aeruginosa.
O=C([O-])CN(CCN(CC(=O)[O-])CC(=O)O)CC(=O)O.[Na+].[Na+] [EDTA disodium],tolerability of infused dose,[4],well tolerated
"CCO [ETHANOL, Ethanol]",MIC-Ethanol (MIC of Ethanol in combination with TEDTA),[5]; C. albicans in MHB,0.781 % (v/v)
same,FIC-Ethanol,"[5]; C. albicans, 0.781/3.125",0.25
same,GROWTH,[5]; ETHANOL 0.781 VOL % individual (0.25 MIC),+VE
same,GROWTH,[5]; ETHANOL 1.563 VOL % individual (0.50 MIC),+VE
same,GROWTH,[5]; ETHANOL 3.125 VOL % individual (1.00 MIC),−VE
same,GROWTH,[6]; ETHANOL 1.563 VOL % individual (0.25 MIC),+VE
same,GROWTH,[6]; ETHANOL 3.125 VOL % individual (0.50 MIC),+VE
same,GROWTH,[6]; ETHANOL 6.250 VOL % individual (1.00 MIC),−VE
same,MIC-Ethanol (MIC of Ethanol in combination with TEDTA),[6]; P. aeruginosa in MHB,3.125 % (v/v)
same,FIC-Ethanol,"[6]; P. aeruginosa, 3.125/6.25",0.5
same,GROWTH,[7]; ETHANOL 6.250 VOL % individual (0.25 MIC),+VE
same,GROWTH,[7]; ETHANOL 12.500 VOL % individual (0.50 MIC),+VE
same,GROWTH,[7]; ETHANOL 25.000 VOL % individual (1.00 MIC),−VE
same,MIC-ETH (MIC of Ethanol in combination with TEDTA),[7]; [11],6.25 % (w/v)
same,FIC-Ethanol,"[7]; S. aureus, 6.25/25",0.25
same,MIC,[8]; ethanol alone,3.125 VOL %
same,GROWTH,[8]; ETHANOL 3.125 VOL %,−VE
same,GROWTH,[8]; ETHANOL 6.25 VOL %,−VE
same,GROWTH,[8]; ETHANOL 12.50 VOL %,−VE
same,GROWTH,[8]; ETHANOL 25.00 VOL %,−VE
same,GROWTH,[8]; ETHANOL 50.00 VOL %,−VE
same,GROWTH,[9]; ETHANOL 3.13 VOL %,+VE
same,GROWTH,[9]; ETHANOL 6.25 VOL %,−VE
same,GROWTH,[9]; ETHANOL 12.50 VOL %,−VE
same,GROWTH,[9]; ETHANOL 25.00 VOL %,−VE
same,GROWTH,[9]; ETHANOL 50.00 VOL %,−VE
same,MIC,[9]; ethanol alone,6.25 VOL %
same,GROWTH,[10]; ETHANOL 3.13 VOL %,+VE
same,GROWTH,[10]; ETHANOL 6.25 VOL %,+VE
same,GROWTH,[10]; ETHANOL 12.50 VOL %,+VE
same,GROWTH,[10]; ETHANOL 25.00 VOL %,−VE
same,GROWTH,[10]; ETHANOL 50.00 VOL %,−VE
same,MIC,[10]; ethanol alone,25 VOL %
"O=C([O-])CN(CCN(CC(=O)[O-])CC(=O)[O-])CC(=O)[O-].[Na+].[Na+].[Na+].[Na+] [TEDTA, tetra-sodium EDTA]",MIC-TEDTA (MIC of TEDTA in combination with Ethanol),[5]; C. albicans in MHB,0.06 % (w/v)
same,FIC-TEDTA,"[5]; C. albicans, 0.06/0.24",0.25
same,GROWTH,[5]; [12],−VE
same,GROWTH,[5]; [13],−VE
same,GROWTH,[5]; [14],−VE
same,MIC-TEDTA (MIC of TEDTA in combination with Ethanol),[6]; P. aeruginosa in MHB,0.12 % (w/v)
same,FIC-TEDTA,"[6]; P. aeruginosa, 0.12/0.25",0.48
same,GROWTH,[6]; TEDTA 0.06 WT % individual (0.24 MIC),+VE
same,GROWTH,[6]; TEDTA 0.12 WT % individual (0.48 MIC),+VE
same,GROWTH,[6]; TEDTA 0.24 WT % individual (0.96 MIC),−VE
same,MIC-TEDTA (MIC of TEDTA in combination with Ethanol),[7]; [11],0.06 % (w/v)
same,FIC-TEDTA,"[7]; S. aureus, 0.06/0.24",0.25
same,GROWTH,[7]; [12],+VE
same,GROWTH,[7]; [13],+VE
same,GROWTH,[7]; [14],−VE
same,MIC,[8]; [15],0.24 WT %
same,GROWTH,[8]; TEDTA 0.015 WT %,+VE
same,GROWTH,[8]; TEDTA 0.030 WT %,+VE
same,GROWTH,[8]; TEDTA 0.060 WT %,+VE
same,GROWTH,[8]; TEDTA 0.120 WT %,+VE
same,GROWTH,[8]; TEDTA 0.240 WT %,−VE
same,MIC,[9]; [15],0.24 WT %
same,GROWTH,[9]; TEDTA 0.125 WT %,+VE
same,GROWTH,[9]; TEDTA 0.250 WT %,−VE
same,GROWTH,[9]; TEDTA 0.500 WT %,−VE
same,GROWTH,[9]; TEDTA 1.000 WT %,−VE
same,GROWTH,[9]; TEDTA 1.500 WT %,−VE
same,MIC,[10]; [15],0.24 WT %
same,GROWTH,[10]; TEDTA 0.015 WT %,+VE
same,GROWTH,[10]; TEDTA 0.030 WT %,+VE
same,GROWTH,[10]; TEDTA 0.060 WT %,+VE
same,GROWTH,[10]; TEDTA 0.120 WT %,+VE
same,GROWTH,[10]; TEDTA 0.240 WT %,−VE
